The results in this text go back to US20250339567A1, “COMPOUNDS WITH IMPROVED PHARMACOKINETICS FOR IMAGING AND THERAPY OF CANCER” (priority 2019, published 2025).

Starred links: 1 amine or outer side, 2 acyl side, 3 side chain; linkers in the order of their positions; H or OH if unused. Non-standard residues stand in square brackets, D forms with d. Residues, ends and D or L forms follow the SMILES beside them. *: point of attachment. DOTA = O=C(O)CN1CCN(CC(=O)O)CCN(CC(=O)*)CCN(CC(=O)O)CC1; αMeW = C[C@](N)(Cc1c[nH]c2ccccc12)C(=O)O; Sta = CC(C)C[C@H](N)[C@@H](O)CC(=O)O; Bta = N[C@@H](Cc1csc2ccccc12)C(=O)O; Gly(cPent) = N[C@H](C(=O)O)C1CCCC1; X1 = O=C(CN1CCC(N[*:1])CC1)[*:2]; Chg = N[C@H](C(=O)O)C1CCCCC1; dOrn = NCCC[C@@H](N)C(=O)O; hSer = N[C@@H](CCO)C(=O)O; dDap = NC[C@@H](N)C(=O)O; Sar = CNCC(=O)O

The data set is described as follows: Plasma studies: metabolic stability in vitro in human plasma (radio RP-HPLC). It is filed as in vitro ADME. As for the experimental part: Metabolic stability in vitro was determined applying a procedure published by Linder et al. that was slightly modified. Immediately after labeling, human (200 μL) or murine (100 μL) plasma was added and the mixture was incubated at 37° C. for 72±2 h (or 6±0.5 h). Proteins were precipitated by treatment with ice-cold EtOH (150 μL [human], 100 μL [murine]) and ice-cold MeCN (450 μL [human], 300 μL [murine]), followed by centrifugation for 20 min at 13000 rpm. The supernatants were decanted and further analyzed using radio RP-HPLC. […]
Take `CC(C)C[C@H](NC(=O)C[C@H](O)[C@H](CC(C)C)NC(=O)[C@H](Cc1c[nH]cn1)NC(=O)CNC(=O)[C@@H](NC(=O)[C@H](C)NC(=O)[C@H](Cc1c[nH]c2ccccc12)NC(=O)[C@H](CCO)NC(=O)[C@@H](CCCNC(=N)N)NC(=O)CN1CCC(NC(=O)CN2CCN(CC(=O)O)CCN(CC(=O)O)CCN(CC(=O)O)CC2)CC1)C(C)C)C(N)=O` [DOTA-[arg^6, Hse^7]MJ9] ({DOTA}-[X1][dR][hSer]WAVGH[Sta]L-NH2): the “Amount of intact tracer after incubation in human plasma for 72 ± 2 h (n = 2)” value (from here on “Amount of intact tracer after incubation”) worked out at 18.2 ± 1.9. With `CC(C)C[C@H](NC(=O)C[C@H](O)[C@H](CC(C)C)NC(=O)[C@H](Cc1c[nH]cn1)NC(=O)CN(C)C(=O)[C@@H](NC(=O)[C@H](C)NC(=O)[C@H](Cc1csc2ccccc12)NC(=O)[C@H](CCC(N)=O)NC(=O)[C@@H](Cc1ccccc1)NC(=O)CN1CCC(NC(=O)CN2CCN(CC(=O)O)CCN(CC(=O)O)CCN(CC(=O)O)CC2)CC1)C(C)C)C(N)=O` [DOTA-[Bta^8, N—Me-Gly^11]MJ9] ({DOTA}-[X1][dF]Q[Bta]AV[Sar]H[Sta]L-NH2) the figure was 3.0 ± 0.2; with `CC(C)C[C@H](NC(=O)C[C@H](O)[C@H](CC(C)C)NC(=O)[C@H](Cc1c[nH]cn1)NC(=O)CNC(=O)[C@@H](NC(=O)[C@H](C)NC(=O)[C@H](Cc1c[nH]c2ccccc12)NC(=O)[C@H](CCC(N)=O)NC(=O)[C@@H](Cc1ccccc1)NC(=O)CN1CCC(NC(=O)CN2CCN(CC(=O)O)CCN(CC(=O)O)CCN(CC(=O)O)CC2)CC1)C1CCCCC1)C(N)=O` [DOTA-[Chg^10]MJ9] ({DOTA}-[X1][dF]QWA[Chg]GH[Sta]L-NH2), 8.4 ± 0.9; with `CC(C)C[C@H](NC(=O)C[C@H](O)[C@H](CC(C)C)NC(=O)[C@H](Cc1c[nH]cn1)NC(=O)CNC(=O)[C@@H](NC(=O)[C@H](C)NC(=O)[C@H](Cc1c[nH]c2ccccc12)NC(=O)[C@H](CCO)NC(=O)[C@@H](Cc1ccccc1)NC(=O)CN1CCC(NC(=O)CN2CCN(CC(=O)O)CCN(CC(=O)O)CCN(CC(=O)O)CC2)CC1)C1CCCCC1)C(N)=O` [DOTA-[Hse^7, Chg^10]MJ9] ({DOTA}-[X1][dF][hSer]WA[Chg]GH[Sta]L-NH2), 33.4 ± 1.0. With `CC(C)C[C@H](NC(=O)C[C@H](O)[C@H](CC(C)C)NC(=O)[C@H](Cc1c[nH]cn1)NC(=O)CNC(=O)[C@@H](NC(=O)[C@H](C)NC(=O)[C@H](Cc1csc2ccccc12)NC(=O)[C@H](CCC(N)=O)NC(=O)[C@@H](Cc1ccccc1)NC(=O)CN1CCC(NC(=O)CN2CCN(CC(=O)O)CCN(CC(=O)O)CCN(CC(=O)O)CC2)CC1)C1CCCC1)C(N)=O` [DOTA-[Bta^8, Cpg^10]MJ9] ({DOTA}-[X1][dF]Q[Bta]A[Gly(cPent)]GH[Sta]L-NH2) the figure was 2.2 ± 0.5; with `CC(C)C[C@H](NC(=O)C[C@H](O)[C@H](CC(C)C)NC(=O)[C@H](Cc1c[nH]cn1)NC(=O)CNC(=O)[C@@H](NC(=O)[C@H](C)NC(=O)[C@H](Cc1c[nH]c2ccccc12)NC(=O)[C@H](CCO)NC(=O)[C@@H](Cc1ccccc1)NC(=O)CN1CCC(NC(=O)[C@@H](CN)NC(=O)[C@@H](CCCN)NC(=O)CN2CCN(CC(=O)O)CCN(CC(=O)O)CCN(CC(=O)O)CC2)CC1)C(C)C)C(N)=O` [DOTA-orn^3-dap^4-[Hse^7]MJ9] ({DOTA}-[dOrn][dDap][X1][dF][hSer]WAVGH[Sta]L-NH2), 7.9 ± 2.5; with `CC(C)C[C@H](NC(=O)C[C@H](O)[C@H](CC(C)C)NC(=O)[C@H](Cc1c[nH]cn1)NC(=O)CNC(=O)[C@@H](NC(=O)[C@H](CO)NC(=O)[C@](C)(Cc1c[nH]c2ccccc12)NC(=O)[C@H](CCC(N)=O)NC(=O)[C@@H](Cc1ccccc1)NC(=O)CN1CCC(NC(=O)CN2CCN(CC(=O)O)CCN(CC(=O)O)CCN(CC(=O)O)CC2)CC1)C(C)C)C(N)=O` [DOTA-[α-Me-Trp^8, Ser^9]MJ9] ({DOTA}-[X1][dF]Q[αMeW]SVGH[Sta]L-NH2), 22.1 ± 2.2. `CC(C)C[C@H](NC(=O)C[C@H](O)[C@H](CC(C)C)NC(=O)[C@H](Cc1c[nH]cn1)NC(=O)CNC(=O)[C@@H](NC(=O)[C@H](CO)NC(=O)[C@H](Cc1c[nH]c2ccccc12)NC(=O)[C@H](CCC(N)=O)NC(=O)[C@@H](Cc1ccccc1)NC(=O)CN1CCC(NC(=O)CN2CCN(CC(=O)O)CCN(CC(=O)O)CCN(CC(=O)O)CC2)CC1)C(C)C)C(N)=O` [DOTA-[Ser^9]MJ9] ({DOTA}-[X1][dF]QWSVGH[Sta]L-NH2): the “Amount of intact tracer after incubation” value was 9.8 ± 4.3. With `CC(C)C[C@H](NC(=O)C[C@H](O)[C@H](CC(C)C)NC(=O)[C@H](Cc1c[nH]cn1)NC(=O)CNC(=O)[C@@H](NC(=O)[C@H](C)NC(=O)[C@H](Cc1c[nH]c2ccccc12)NC(=O)[C@H](CCO)NC(=O)[C@@H](Cc1ccccc1)NC(=O)CN1CCC(NC(=O)CN2CCN(CC(=O)O)CCN(CC(=O)O)CCN(CC(=O)O)CC2)CC1)C1CCCC1)C(N)=O` [DOTA-[Hse^7, Cpg^10]MJ9] ({DOTA}-[X1][dF][hSer]WA[Gly(cPent)]GH[Sta]L-NH2) the figure was 28.1 ± 2.4. With `CC(C)C[C@H](NC(=O)C[C@H](O)[C@H](CC(C)C)NC(=O)[C@H](Cc1c[nH]cn1)NC(=O)CNC(=O)[C@@H](NC(=O)[C@H](C)NC(=O)[C@H](Cc1csc2ccccc12)NC(=O)[C@H](CCC(N)=O)NC(=O)[C@@H](CCCNC(=N)N)NC(=O)CN1CCC(NC(=O)CN2CCN(CC(=O)O)CCN(CC(=O)O)CCN(CC(=O)O)CC2)CC1)C(C)C)C(N)=O` [DOTA-[arg^6, Bta^8]MJ9] ({DOTA}-[X1][dR]Q[Bta]AVGH[Sta]L-NH2) the figure was 6.6 ± 2.0; with `CC(C)C[C@H](NC(=O)C[C@H](O)[C@H](CC(C)C)NC(=O)[C@H](Cc1c[nH]cn1)NC(=O)CNC(=O)[C@@H](NC(=O)[C@H](C)NC(=O)[C@H](Cc1csc2ccccc12)NC(=O)[C@H](CCC(N)=O)NC(=O)[C@@H](Cc1ccccc1)NC(=O)CN1CCC(NC(=O)CN2CCN(CC(=O)O)CCN(CC(=O)O)CCN(CC(=O)O)CC2)CC1)C1CCCCC1)C(N)=O` [DOTA-[Bta^8, Chg^10]MJ9] ({DOTA}-[X1][dF]Q[Bta]A[Chg]GH[Sta]L-NH2), 2.5 ± 1.0. Turning to `CC(C)C[C@H](NC(=O)C[C@H](O)[C@H](CC(C)C)NC(=O)[C@H](Cc1c[nH]cn1)NC(=O)CNC(=O)[C@@H](NC(=O)[C@H](C)NC(=O)[C@H](Cc1c[nH]c2ccccc12)NC(=O)[C@H](CCC(N)=O)NC(=O)[C@@H](Cc1ccccc1)NC(=O)CN1CCC(NC(=O)[C@@H](CN)NC(=O)[C@@H](CCCN)NC(=O)CN2CCN(CC(=O)O)CCN(CC(=O)O)CCN(CC(=O)O)CC2)CC1)C(C)C)C(N)=O` [DOTA-orn^3-dap^4-MJ9] ({DOTA}-[dOrn][dDap][X1][dF]QWAVGH[Sta]L-NH2), the “Amount of intact tracer after incubation” value stood at 5.9 ± 0.5. With `CC(C)C[C@H](NC(=O)C[C@H](O)[C@H](CC(C)C)NC(=O)[C@H](Cc1c[nH]cn1)NC(=O)CNC(=O)[C@@H](NC(=O)[C@H](CO)NC(=O)[C@H](Cc1c[nH]c2ccccc12)NC(=O)[C@H](CCO)NC(=O)[C@@H](Cc1ccccc1)NC(=O)CN1CCC(NC(=O)CN2CCN(CC(=O)O)CCN(CC(=O)O)CCN(CC(=O)O)CC2)CC1)C(C)C)C(N)=O` [DOTA-[Hse^7, Ser^9]MJ9] ({DOTA}-[X1][dF][hSer]WSVGH[Sta]L-NH2) the figure was 14.5 ± 0.8.
